Molecular target: T1, recombinant human GluN1/GluN2A receptor (Homo sapiens, UniProt Q05586+Q12879)
T1 construct: expressed in transfected cells; host or cells: HEK293, tetracycline-inducible expression
Experiment: Whole-cell patch clamp of mammalian cells (Syncropatch 384i), NMDA modulation
Type: cell-based
Conditions: Table H-2, HEK293 cells, human GluN1/GluN2A, glutamate 1 μM / glycine 100 μM, -80 mV, peak amplitude increase; for EC50: read-out: EC50
Method in brief: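 HEK293 cells with tetracycline-induced (50 ng/ml, 18–24 h) human GluN1/GluN2A, automated whole-cell recording at −80 mV, pH 7.4 external. After 120 s compound pre-incubation, compound applied with glutamate 1 μM/glycine 100 μM; fold peak increase (Icomp/Icontrol)−1 over 8 concentrations fitted four-parameter logistic.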

T1 sequence (Q12879 23-1464, other chains not shown): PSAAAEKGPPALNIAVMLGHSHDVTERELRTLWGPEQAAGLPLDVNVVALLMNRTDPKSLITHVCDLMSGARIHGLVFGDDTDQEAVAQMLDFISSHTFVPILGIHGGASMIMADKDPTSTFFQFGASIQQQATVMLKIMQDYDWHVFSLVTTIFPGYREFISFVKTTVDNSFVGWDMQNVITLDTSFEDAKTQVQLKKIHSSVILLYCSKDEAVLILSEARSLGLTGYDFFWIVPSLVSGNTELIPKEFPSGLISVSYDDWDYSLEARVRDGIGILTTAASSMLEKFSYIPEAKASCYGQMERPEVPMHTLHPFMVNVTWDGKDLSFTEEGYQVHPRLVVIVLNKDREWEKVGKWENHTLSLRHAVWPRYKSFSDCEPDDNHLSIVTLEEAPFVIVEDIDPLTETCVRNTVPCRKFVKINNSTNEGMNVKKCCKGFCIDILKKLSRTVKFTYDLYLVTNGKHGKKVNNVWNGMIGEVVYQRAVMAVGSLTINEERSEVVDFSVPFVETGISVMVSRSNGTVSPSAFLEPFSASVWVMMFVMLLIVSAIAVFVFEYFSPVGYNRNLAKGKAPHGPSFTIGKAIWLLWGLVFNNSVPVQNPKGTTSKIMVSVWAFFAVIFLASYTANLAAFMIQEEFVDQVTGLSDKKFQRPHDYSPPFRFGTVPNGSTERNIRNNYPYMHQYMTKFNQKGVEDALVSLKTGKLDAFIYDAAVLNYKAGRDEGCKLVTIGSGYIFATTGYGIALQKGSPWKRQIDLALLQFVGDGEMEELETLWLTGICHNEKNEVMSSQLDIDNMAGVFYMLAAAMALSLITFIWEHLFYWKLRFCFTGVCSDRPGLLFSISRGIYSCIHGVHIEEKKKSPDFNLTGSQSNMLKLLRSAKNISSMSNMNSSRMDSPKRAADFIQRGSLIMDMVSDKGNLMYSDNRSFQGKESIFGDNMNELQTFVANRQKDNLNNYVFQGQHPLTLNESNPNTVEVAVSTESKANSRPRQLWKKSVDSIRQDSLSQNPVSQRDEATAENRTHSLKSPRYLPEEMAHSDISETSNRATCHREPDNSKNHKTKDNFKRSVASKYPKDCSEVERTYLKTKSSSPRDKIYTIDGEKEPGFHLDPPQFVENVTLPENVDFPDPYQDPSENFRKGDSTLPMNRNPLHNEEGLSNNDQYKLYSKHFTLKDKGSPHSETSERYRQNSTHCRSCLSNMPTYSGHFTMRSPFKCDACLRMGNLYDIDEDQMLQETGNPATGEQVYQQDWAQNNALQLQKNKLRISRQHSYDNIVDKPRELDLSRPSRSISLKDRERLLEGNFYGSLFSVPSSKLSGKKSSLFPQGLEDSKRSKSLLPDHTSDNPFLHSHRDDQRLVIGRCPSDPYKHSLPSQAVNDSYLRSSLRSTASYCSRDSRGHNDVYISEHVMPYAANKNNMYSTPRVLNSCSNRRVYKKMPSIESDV

Emax [%] | EC50 [nM] | SMILES
< 100 | 100 to 500 | CC(C)[C@H](O)CC[C@@H](C)[C@H]1CCC[C@H]2[C@@H]3CC=C4C[C@@](C)(O)CC[C@]4(C)[C@H]3CC[C@]12C [Compound H-8, (2S,4aR,4bS,6aR,7R,10aS,10bS)-7-((2R,5R)-5-hydroxy-6-methylheptan-2-yl)-2,4a,6a-trimethyl-1,2,3,4,4a,4b,5,6,6a, 7,8,9,10,10a,10b,11-hexadecahydrochrysen-2-ol]
 | 100 to 500 | CC[C@]1(O)CC[C@@]2(C)C(=CC[C@H]3[C@@H]4CCC[C@H]([C@H](C)CC[C@](C)(O)C(F)(F)F)[C@@]4(C)CC[C@@H]32)C1 [Compound H-9, (2S,4aR,4bS,6aR,7R,10aS,10bS)-2-ethyl-4a,6a-dimethyl-7-((2R,5S)-6,6,6-trifluoro-5-hydroxy-5-methylhexan-2-yl)-1,2,3,4,4a,4b,5,6,6a,7,8,9,10,10a,10b,11-hexadecahydrochrysen-2-ol]
 | 500 to 1000 | CC[C@]1(O)CC[C@@]2(C)C(=CC[C@H]3[C@@H]4CCC[C@H]([C@H](C)CC[C@@](C)(O)C(F)(F)F)[C@@]4(C)CC[C@@H]32)C1 [Compound H-10, (2S,4aR,4bS,6aR,7R,10aS,10bS)-2-ethyl-4a,6a-dimethyl-7-((2R,5R)-6,6,6-trifluoro-5-hydroxy-5-methylhexan-2-yl)-1,2,3,4,4a,4b,5,6,6a,7,8,9,10,10a,10b,11-hexadecahydrochrysen-2-ol]
 | 100 to 500 | C[C@H](CC[C@@](C)(O)C(F)(F)F)[C@H]1CCC[C@H]2[C@@H]3CC=C4C[C@@](C)(O)CC[C@]4(C)[C@H]3CC[C@]12C [Compound H-11, (2S,4aR,4bS,6aR,7R,10aS,10bS)-2,4a,6a-trimethyl-7-((2R,5R)-6,6,6-trifluoro-5-hydroxy-5-methylhexan-2-yl)-1,2,3,4,4a,4b,5,6,6a,7,8,9,10,10a,10b,11-hexadecahydrochrysen-2-ol]
